The record followed here is ChEMBL document CHEMBL1140953, “Anthracene based compounds as new L-type Ca2+ channel blockers: design, synthesis, and full biological profile” (J Med Chem, 2009).

The nature of data set [1]: Vasorelaxant activity in Sprague-Dawley rat caudal artery ring assessed as reduction of KCl-induced muscle contractions at 50 uM relative to control. In kind it is functional. The arrangement: scale not given: the % may be the effect or the level left.
The species entered for data set [2] is Rattus norvegicus. Briefly: Vasorelaxant activity in Sprague-Dawley rat caudal artery ring assessed as reduction of caffeine-induced muscle contractions at 50 uM. Type of data set: functional, tissue-based.
For data set [3], the species on record is Rattus norvegicus. Nature of the data set: Vasorelaxant activity in Sprague-Dawley rat caudal artery ring assessed as reduction of phenylephrine-induced muscle contractions at 50 uM in Ca2+-free physiological salt solution. Type of data set: functional, tissue-based.
The nature of data set [4]: Displacement of (-)-[3H]devapamil from L-type calcium channel in rabbit smooth skeletal cells relative to verapamil.
The next data set is filed under the species Oryctolagus cuniculus. Briefly: (§1) Displacement of (-)-[3H]devapamil from L-type calcium channel in rabbit skeletal muscle cells. The settings on record: concentration not given here.
Data set [5] has as its target T1, Voltage-gated L-type calcium channel (Rattus norvegicus, UniProt P22002+Q02485+P27732). Nature of the data set: Inhibition of L-type calcium channel in Sprague-Dawley rat caudal artery smooth muscle cells by whole cell patch clamp method. In general terms: The patch-clamp technique gives a direct electrical read-out from membranes.
The target in data set [6] is T1, Voltage-gated L-type calcium channel. Nature of the data set: Inhibition of L-type calcium channel in Sprague-Dawley rat caudal artery smooth muscle cells assessed as decrease in amplitude at 15 uM by whole cell patch clamp method. The conditions noted are these: TDE = time-dependent effect.
For data set [7] the target is unchanged. Nature of the data set: Inhibition of L-type calcium channel in Sprague-Dawley rat caudal artery smooth muscle cells assessed as inhibition of peak inward current at 15 uM by whole cell patch clamp method at -20 to 40 mV voltage.
Data set [8] has the same target. Briefly: Inhibition of L-type calcium channel in Sprague-Dawley rat caudal artery smooth muscle cells at 15 uM by whole cell patch clamp method at 2 Hz.
The target is the same in data set [9]. Nature of the data set: Inhibition of L-type calcium channel in Sprague-Dawley rat caudal artery smooth muscle cells at 15 uM by whole cell patch clamp method at 4 Hz.
The nature of data set [10]: Displacement of (+)-[3H]isradipine from L-type calcium channel in rabbit skeletal muscle cells. The arrangement: species or system Oryctolagus cuniculus.
Data set [11] has as its target Voltage-dependent L-type calcium channel subunit alpha-1C (Mus musculus, UniProt Q01815). Nature of the data set: Inhibition of mouse brain L-type Cav1.2 channel by radioligand binding assay.
Data set [12] is described as follows: as §1. The arrangement: species or system Oryctolagus cuniculus.
Data set [13] has as its target T1, Voltage-gated L-type calcium channel. Briefly: Inhibition of L-type calcium channel in Sprague-Dawley rat caudal artery smooth muscle cells at 15 uM by whole cell patch clamp method at -50 mV voltage.
The species entered for data set [14] is Rattus norvegicus. Nature of the data set: Vasorelaxant activity in Sprague-Dawley rat caudal artery ring assessed as reduction of caffeine-induced muscle contractions at 50 uM in Ca2+-free physiological salt solution. Type of data set: functional, tissue-based.

Molecules are shown by their SMILES. The source made the active and inactive calls. The calls are words filed in the database; no cut-off is given here.

Sequence of Voltage-dependent L-type calcium channel subunit alpha-1C (Q01815 whole entry): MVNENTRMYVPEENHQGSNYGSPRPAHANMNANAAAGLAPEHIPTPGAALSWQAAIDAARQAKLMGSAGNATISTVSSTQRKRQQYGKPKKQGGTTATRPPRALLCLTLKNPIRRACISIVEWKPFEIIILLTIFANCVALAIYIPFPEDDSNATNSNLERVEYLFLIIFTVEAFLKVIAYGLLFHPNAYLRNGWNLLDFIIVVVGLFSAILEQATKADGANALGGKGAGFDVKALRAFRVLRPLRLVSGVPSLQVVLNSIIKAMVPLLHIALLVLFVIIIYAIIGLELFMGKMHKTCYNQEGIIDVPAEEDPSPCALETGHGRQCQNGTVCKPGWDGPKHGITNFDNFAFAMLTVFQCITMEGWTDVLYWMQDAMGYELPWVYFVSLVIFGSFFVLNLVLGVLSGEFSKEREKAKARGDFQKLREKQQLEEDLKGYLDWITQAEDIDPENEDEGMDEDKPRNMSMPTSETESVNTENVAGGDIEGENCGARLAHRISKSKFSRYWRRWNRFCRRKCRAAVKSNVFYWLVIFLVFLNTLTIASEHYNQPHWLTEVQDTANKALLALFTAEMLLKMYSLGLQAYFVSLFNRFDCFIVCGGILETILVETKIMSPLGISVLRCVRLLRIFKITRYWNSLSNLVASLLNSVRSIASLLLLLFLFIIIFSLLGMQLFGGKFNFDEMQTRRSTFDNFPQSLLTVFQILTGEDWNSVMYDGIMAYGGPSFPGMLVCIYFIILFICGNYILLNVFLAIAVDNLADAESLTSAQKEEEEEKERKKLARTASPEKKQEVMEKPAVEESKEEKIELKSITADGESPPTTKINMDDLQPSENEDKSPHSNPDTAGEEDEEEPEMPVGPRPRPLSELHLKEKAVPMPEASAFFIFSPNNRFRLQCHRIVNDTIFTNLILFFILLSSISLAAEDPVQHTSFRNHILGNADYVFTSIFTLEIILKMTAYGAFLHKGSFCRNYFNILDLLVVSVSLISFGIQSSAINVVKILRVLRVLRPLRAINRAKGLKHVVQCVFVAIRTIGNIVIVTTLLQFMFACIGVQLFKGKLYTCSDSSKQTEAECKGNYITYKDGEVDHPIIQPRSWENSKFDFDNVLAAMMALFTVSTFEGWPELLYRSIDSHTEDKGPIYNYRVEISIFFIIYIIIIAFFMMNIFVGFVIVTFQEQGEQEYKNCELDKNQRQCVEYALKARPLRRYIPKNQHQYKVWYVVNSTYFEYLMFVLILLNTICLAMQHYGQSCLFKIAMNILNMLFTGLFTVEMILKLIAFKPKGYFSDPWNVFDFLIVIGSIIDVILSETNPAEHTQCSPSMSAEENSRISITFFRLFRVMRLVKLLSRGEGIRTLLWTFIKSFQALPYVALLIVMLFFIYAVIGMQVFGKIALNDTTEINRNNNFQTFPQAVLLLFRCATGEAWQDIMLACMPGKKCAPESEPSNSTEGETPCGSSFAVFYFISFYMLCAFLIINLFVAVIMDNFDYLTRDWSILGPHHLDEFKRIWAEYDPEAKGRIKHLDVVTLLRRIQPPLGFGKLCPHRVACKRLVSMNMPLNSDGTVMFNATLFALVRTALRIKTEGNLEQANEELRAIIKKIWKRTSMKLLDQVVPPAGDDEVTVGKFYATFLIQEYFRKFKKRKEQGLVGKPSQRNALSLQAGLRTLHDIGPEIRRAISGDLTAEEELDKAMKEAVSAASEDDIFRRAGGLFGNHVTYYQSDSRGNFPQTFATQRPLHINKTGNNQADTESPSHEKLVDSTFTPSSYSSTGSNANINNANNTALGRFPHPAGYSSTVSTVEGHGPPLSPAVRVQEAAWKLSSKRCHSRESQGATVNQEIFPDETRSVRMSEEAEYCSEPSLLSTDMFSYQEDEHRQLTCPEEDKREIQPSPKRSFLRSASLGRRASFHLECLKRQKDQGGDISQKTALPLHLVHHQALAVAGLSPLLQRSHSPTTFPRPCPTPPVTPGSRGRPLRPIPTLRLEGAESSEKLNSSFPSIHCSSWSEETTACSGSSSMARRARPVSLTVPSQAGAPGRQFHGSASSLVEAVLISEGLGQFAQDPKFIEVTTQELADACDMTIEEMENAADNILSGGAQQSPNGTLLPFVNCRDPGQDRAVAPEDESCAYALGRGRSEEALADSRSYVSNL

For the molecule `O=C1NC(=O)C2C3c4ccccc4C(c4cccc(Cl)c43)C12` (configuration not stated), the Activity in [1] is 90%. The outcome in the data set filed under Rattus norvegicus [2] and in the data set listed under Rattus norvegicus [3] was Active.

As for `O=C1NC(=O)C2C1C1c3ccccc3C2(CO)c2ccccc21` (configuration not stated), the result in the data set filed under Rattus norvegicus [2] and in the data set listed under Rattus norvegicus [3] was Active.

`N#CC12c3ccccc3C(c3ccccc31)C1C(=O)NC(=O)C12` (configuration not stated): the outcome in the data set filed under Rattus norvegicus [2] and in the data set filed under Rattus norvegicus [3] was Active.

On to `CC12c3ccccc3C(c3ccccc31)C1C(=O)NC(=O)C12` (configuration not stated), for which the result in the data set filed under Rattus norvegicus [2] and in the data set listed under Rattus norvegicus [3] was Active.

`COc1ccc(CCN(C)CCCC(C#N)(c2ccc(OC)c(OC)c2)C(C)C)cc1OC` (configuration not stated) [VERAPAMIL]: in data set [4], the IC50 – broadly, the concentration that gives 50% inhibition – came out at 0.0602 µM. In addition, the inhibition (commonly the percentage by which the read-out fell short of the control) in the data set listed under Oryctolagus cuniculus was found to be 100%.

Take `O=C1NC(=O)C2C3c4ccccc4C(c4ccccc43)C12` (configuration not stated): the outcome in the data set filed under Rattus norvegicus [2] and in the data set listed under Rattus norvegicus [3] was Active.

Regarding `Cc1ccc2c(c1)C1c3ccccc3C2C2C(=O)NC(=O)C12` (configuration not stated), the Activity in data set [1] is given as 90%. For the same molecule, the outcome in the data set filed under Rattus norvegicus [2] and in the data set filed under Rattus norvegicus [3] was Active.

With `C#CCN1C(=O)C2C3c4ccccc4C(c4ccccc43)C2C1=O` (configuration not stated), the outcome in the data set filed under Rattus norvegicus [2] and in the data set filed under Rattus norvegicus [3] was Active.

For `O=C1NC(=O)C2C1C1c3ccccc3C2([N+](=O)[O-])c2ccccc21` (configuration not stated), the outcome in the data set listed under Rattus norvegicus [2] and in the data set listed under Rattus norvegicus [3] was Active.

On to `O=C1NC(=O)C2C3c4ccccc4C(c4ccc(Cl)cc43)C12` (configuration not stated), for which the IC50 turned out to be 16.5 µM in data set [5], 6.3 µM in data set [10], 19.4 µM in [11] and 5.6 µM in [12]. In addition, the Activity result in [5] (rat) is given as “Dose-dependent effect”; in data set [6] it was “tde”; in [7] it was “Active”; in data set [8] it was “Active”; in data set [9] it was “Active”; in data set [1] it was 100%. The result in data set [13] was Active. In addition, the result in the data set filed under Rattus norvegicus [3] and in the data set listed under Rattus norvegicus [14] was inactive.

Regarding `O=CC12c3ccccc3C(c3ccccc31)C1C(=O)NC(=O)C12` (configuration not stated), the result in the data set filed under Rattus norvegicus [2] and in the data set filed under Rattus norvegicus [3] was Active.

On to `O=C1NC(=O)C2C1C1c3ccccc3C2(Cl)c2ccccc21` (configuration not stated), for which the result in the data set listed under Rattus norvegicus [2] and in the data set filed under Rattus norvegicus [3] was Active.
